Several values for one entry are separate records, joined by “and”; a condition that tells them apart may be missing. Equal values may be shown once.
Target: T1, WWP2 (GST-tagged WWP2-FL) (Homo sapiens, UniProt O00308)
T1 construct: Full- length WWP2 (WWP2-FL); made in house; host or cells: E. coli BL21-CodonPlus RP (plasmid pGEX2T-WWP2-FL, Dr Andrew Chantry's Lab)
Test: in vitro autoubiquitination assay (single shot and dose dependency), WWP2
Format: biochemical
Settings: single shot, compound at 1 mM (1% DMSO), standardized to 0 and 100% controls
Description: A single shot in vitro autoubiquitination assay was performed for I3C, DIM and each of the derivatives against WWP1 and WWP2 using a compound concentration of 1 mM (1% DMSO) (SI Figure S3). […] These active compounds were then subjected to a detailed dose dependency analysis leading to IC50 values. This strategy has previously been employed to screen other WWP1/WWP2 small molecule inhibitors as well as used to assess I3C inhibition toward NEDD4-1.[29],[32] In this way, compounds displaying a relative activity (RA) of less than 50% in the single shot assay were further screened for dose-dependency using a logarithmic concentration range from 10 nM to 1 mM (1% DMSO) (SI Figure S4). […] These were confirmed by counter assays to remove compounds possibly interacting with other enzymes in the assay or interfering with the assay directly (SI Table S1).
Cell lysate containing His-tagged WWP1-L34H or GST-tagged WWP2-FL proteins were incubated on either 96-well Clear Pierce glutathione or nickel-coated plates for 1 h. Reaction mixtures of either 3 ng/well GST-Uba1 and 15 ng/well UbcH7 or 10 ng/well His-Uba1 and 150 ng/well His-UbcH7 were incubated together in 25 mM Tris pH 8.0, 100 mM NaCl, 4 mM MgCl2 containing 60 ng/well FLAG-ubiquitin and 1.25 mM ATP for 40 min. A prior 1% BSA plate blocking step is required for nickel-coated plates. After plate washing, 2 μL of the compound was added at the desired concentration (1% DMSO) followed by 18 μL of the reaction mixture. This was then incubated for 2 h with 0 and 100% controls before 100 μL of anti-FLAG M2-Peroxidase HRP (1:10,000 PBST) was added to each well and incubated for 1 h. Finally, 100 μL of 1 × TMB substrate solution (Invitrogen) was added to each well and incubated for up to 10 min until sufficient blue color change was observed. To stop the reaction, 100 μL of 1 M HCl was added. For the counter assay, 3 ng/well GST-Uba1 and 200 ng/well UbcH7 were incubated with the other reaction mixture components for 1 h before incubating onto plates for a further 1 h. All other steps were followed. The plates were washed three times with PBST (and 15 mM Imidazole) between each step. Quantification was measured by absorbance read at 450 nm. All assay optimizations were as previously reported.[32] IC50 nonlinear regression curves were calculated in GraphPad v10.2 (Prism). […]
Auto-ubiquitination Assay
Cell lysate containing His-tagged WWP1-L34H or GST-tagged WWP2-FL proteins were incubated on either 96-well Clear Pierce glutathione 2 or nickel-coated plates for 1 hour. Reaction mixtures of either 3 ng/well GST-Uba1 and 15 ng/well UbcH7 or 10 ng/well His-Uba1 and 150 ng/well His-UbcH7 were incubated together in 25 mM Tris pH 8.0, 100 mM NaCl, 4 mM MgCl2 containing 60 ng/well FLAG-ubiquitin and 1.25 mM ATP for 40 minutes. A prior 1 % BSA plate blocking step is required for nickel-coated plates. After plate washing, 2 μL of the compound was added at the desired concentration (1 % DMSO) followed by 18 μL of the reaction mixture. This was then incubated for 2 hours with 0% and 100% controls before 100 μL of anti-FLAG M2-Peroxidase HRP (1: 10,000 PBST) was added to each well and incubated for 1 hour.
Finally, 100 μL of 1 × TMB substrate solution (Invitrogen) was added to each well and […]
incubated for up to 10 minutes until sufficient blue colour change was observed. To stop the reaction, 100 μL of 1 M HCl was added. For the counter assay, 3 ng/well GST-Uba1 and 200 ng/well UbcH7 were incubated with the other reaction mixture components for 1 hour before incubating onto plates for a further 1 hour. All other steps were followed.
The plates were washed three times with PBST (and 15 mM Imidazole) between each step. Quantification was measured by absorbance read at 450 nm. All assay optimisations have been previously reported by Watt and colleagues3.
Relative activity (RA) was determined by comparing the autoubiquitination of the WWP ligases in the presence of each compound, i.e TMB absorbance (450 nm), to the […]

T1 sequence (O00308 whole entry): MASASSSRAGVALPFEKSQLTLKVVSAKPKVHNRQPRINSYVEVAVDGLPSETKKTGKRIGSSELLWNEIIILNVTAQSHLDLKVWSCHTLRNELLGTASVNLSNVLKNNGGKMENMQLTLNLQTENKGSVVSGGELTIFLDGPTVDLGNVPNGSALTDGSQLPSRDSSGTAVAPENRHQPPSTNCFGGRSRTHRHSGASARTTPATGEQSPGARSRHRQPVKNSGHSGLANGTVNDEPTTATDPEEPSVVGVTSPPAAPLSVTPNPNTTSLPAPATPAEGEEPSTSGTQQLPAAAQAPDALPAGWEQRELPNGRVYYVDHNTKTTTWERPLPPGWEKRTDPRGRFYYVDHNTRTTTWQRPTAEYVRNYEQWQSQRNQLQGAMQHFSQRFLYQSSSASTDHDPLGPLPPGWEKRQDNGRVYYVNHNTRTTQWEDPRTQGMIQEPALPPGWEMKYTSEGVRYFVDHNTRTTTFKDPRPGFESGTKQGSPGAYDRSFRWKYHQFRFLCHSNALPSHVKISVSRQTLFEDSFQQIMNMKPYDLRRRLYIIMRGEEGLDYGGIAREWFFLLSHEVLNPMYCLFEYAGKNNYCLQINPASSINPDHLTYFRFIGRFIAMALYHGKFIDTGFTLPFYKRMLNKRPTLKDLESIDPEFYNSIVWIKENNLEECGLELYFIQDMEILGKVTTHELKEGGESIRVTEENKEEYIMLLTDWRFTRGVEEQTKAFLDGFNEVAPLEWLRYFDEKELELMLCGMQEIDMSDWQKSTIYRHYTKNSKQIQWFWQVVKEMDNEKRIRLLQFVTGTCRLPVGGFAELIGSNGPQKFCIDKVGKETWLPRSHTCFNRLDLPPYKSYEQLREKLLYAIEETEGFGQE

WWP2 RA (%) relative activity: 88.0 ± 7.5% and 88.0%
SMILES: OCc1c[nH]c2ccccc12 [Compound I3C, Indole-3-carbinol, reference compound]

— publication PMC11840788, “3,3′-Diindolylmethane (DIM): A Molecular Scaffold for Inhibition of WWP1 and WWP2, Members of the NEDD4 Family HECT E3 Ligases” (ACS Omega, 2025)
